Test results reported in US7091207B2, “Method of treating myocardial infarction with PDE-5 inhibitors” (Virginia Commonwealth University, priority 2002, dated 2006).
Marks after values point to notes of the source that are not given here.

Key:
[1] = system: rabbit heart, ischemia/reperfusion injury; test: In situ rabbit model of myocardial infarction (30 min coronary occlusion, 180 min reperfusion), infarct size by TTC staining; format: in vivo; conditions: control rabbits, 5-HD 5 mg/kg IV 10 min prior to ischemia
[2] = system: neonatal mouse cardiac myocytes; format: cell-based; conditions: for effect of channel blocker on the protective effect of sildenafil: 5-hydroxydecanoate 100 μM, HMR1098 30 μM
Experimental: Neonatal mouse myocytes in culture are incubated with 0.5–5 μM of DOX (in the presence or absence of 1 μM sildenafil) for 18 hours. The cells are then incubated with drug free growth medium for an additional 24 hours. Cytotoxicity of DOX is quantitatively assessed by measuring the percentage of cells killed and the amount of creatine kinase (CK) released into the media. In addition, a trypan blue exclusion assay and propidium iodide nuclear stain are used to quantitate cell death. Since DOX induces cardiomyopathy through the release of reactive oxygen species, lipid peroxidation in the cells is also measured as an index of oxidative damage.
Neonatal mouse cardiac myocyte cultures are used for membrane potential studies. Cells in culture are treated with 0.5–5 μM of DOX (in the presence or absence of 1 μM sildenafil) for 18 hours. The cells are then incubated with drug free growth medium for an additional 24 hours. Additional groups are included where the cells are treated with a mitoKATP channel blocker (5-hydroxydecanoate, 100 μM), surface channel blocker (HMR1098, 30 μM) or cyclosporine, a mitochondrial membrane potential (Ψm) blocker (5 μM). For assessment of apoptosis, the TUNEL assay is used, which is an accurate method for distinguishing apoptosis from necrosis by specifically detecting DNA cleavage and chromatin condensation characteristic of apoptosis. Additionally, positive TUNEL staining directly correlates with the more typical biochemical and morphological aspects of apoptosis. Since an understanding of cell morphology is critical for data interpretation, apoptotic morphology is simultaneously assessed according to accepted scientific criteria previously described (Nor-Avi, 1999). The in situ staining of DNA strand breaks detected by the TUNEL assay along with subsequent morphological observation via epifluorescent, confocal, and electron microscopy, provides significant and reliable data regarding the identification of apoptotic cells, even in tissue samples where apoptosis represents a small segment of the population (Manning 1994). In addition, several other key indicators of apoptosis including annexin-V, cytosolic cytochrome c, caspase 3, caspase 8, as well as poly (ADP-ribose) polymerase cleavage in these groups, are measured. Mitochondrial membrane potential (Ψm) using a fluorescent indicator probe, JC-1 (Molecular Probes, Eugene, Oreg.) is measured.

[3] = Systemic hemodynamics (blood pressure, heart rate, rate pressure product) in rabbits; format: in vivo, rabbit; conditions: 5-HD 5 mg/kg IV 10 min prior to ischemia, control rabbits
[4] = system: mouse heart, global I-R injury; test: Isolated perfused mouse heart (Langendorff), 20 min global ischemia and 30 min reperfusion after in vivo treatment; conditions: saline+1400W; 1400W 10 mg/kg IP 30 minutes before I-R
Experimental: Adult male outbred ICR mice were supplied by Harlan Inc (Indianapolis, Ind.). Viagra pills (Pfizer Inc) were ground into powder and dissolved in saline. The drug solution was filtered (0.45-μm pore size) before intraperitoneal injection. 1400W, an iNOS inhibitor, was obtained from Alexis. We used an isolated perfused mouse heart model subjected to 20 minutes of global ischemia and 30 minutes of reperfusion (Langendorff mode). Myocardial I-R injury was assessed by measuring infarct size, contractile function, and coronary flow as described previously (Xi, 1999). Twenty-eight mice were randomized into the following 4 groups: (n=6 to 9 per group): (1) saline (0.15 mL IP), (2) sildenafil (0.7 mg/kg IP, equivalent to 50 mg Viagra pill used for patients with erectile dysfunction, given 24 hours before I-R), (3) sildenafil+1400W (10 mg/kg IP, 14 given 30 minutes before I-R), and (4) saline+1400W. Measurement of NOS Isoforms Mice were treated with sildenafil (0.7 mg/kg IP), and their hearts were removed at 15, 30, and 45 minutes and 1, 2, 3, 4, and 24 hours after injection (n=3 per group). Three nontreated hearts were used as controls. Tissue samples were ground under liquid nitrogen and homogenized with TRI Reagent (Molecular Research Center) for extracting total RNA, which was reverse-transcribed into cDNA at 50° C. for 30 minutes using a OneStep reverse transcription (RT)-polymerase chain reaction (PCR) kit from Qiagen. The oligonucleotide primers were synthesized on the basis of published sequences for murine iNOS, eNOS, and GAPDH15 (Integrated DNA Technology). The RT-PCR products were electrophoresed on 1.5% Trisacetate-EDTA agarose gel. The target bands were identified on the basis of their specific size using DNA standards. iNOS and eNOS proteins were measured by Western blots as described previously. 13 In brief, triplicate heart samples were collected 24 hours after saline or sildenafil injection and homogenized in ice-cold RIPA buffer (Upstate Biotechnology). The homogenate was centrifuged at 10,000 g for 10 minutes at 4° C., and supernatant was recovered as the total cellular protein. Total protein (60 μg) from each sample was separated by SDS-PAGE on 10% acrylamide gels, transferred to a polyvinylidine difluoride membrane, and then blocked with 5% nonfat dry milk in Tris-buffered saline. The membrane was subsequently incubated with a rabbit polyclonal antibody (dilution 1:500, Santa Cruz) reacting specifically to iNOS, eNOS, or actin. The secondary antibody was a horseradish peroxidase-conjugated anti-rabbit IgG (1:1000 dilution, Amersham). The membranes were developed using enhanced chemiluminescence and exposed to x-ray film. The mRNA and protein expression were quantified by scanning each of the RT-PCR or Western blot band using a densitometer (Bioquant 98). […]

iNOS vs nNOS = conditions: cited from earlier work
[5] = system: DOX-related cardiac complications; conditions: clinical use; cited from earlier work

SMILES: CCCCCC(O)CCCC(=O)O (stereo not shown) [5-HD, 5-hydroxydecanoate]
- infarct size [1]: 33.5±1.9 % of risk area
- effect of channel blocker on the protective effect of sildenafil [2]: abolished
- HR ([3]; 30-min Ischemia): 185 ± 8 beats/min
- MAP ([3]; 30-min Ischemia): 95 ± 5^a mmHg
- RPP (systolic arterial pressure × HR) ([3]; 30-min Ischemia): 19215 ± 999
- HR ([3]; Baseline): 171 ± 13^d,e beats/min
- MAP ([3]; Baseline): 120 ± 4 mmHg
- RPP (systolic arterial pressure × HR) ([3]; Baseline): 22477 ± 1849
- HR ([3]; Preischemia): 178 ± 13 beats/min
- MAP ([3]; Preischemia): 110 ± 6 mmHg
- RPP (systolic arterial pressure × HR) ([3]; Preischemia): 20977 ± 1373
- HR ([3]; Reperfusion (60 min)): 162 ± 8 beats/min
- MAP ([3]; Reperfusion (60 min)): 97 ± 5^a mmHg
- RPP (systolic arterial pressure × HR) ([3]; Reperfusion (60 min)): 17050 ± 1132
- HR ([3]; Reperfusion (120 min)): 160 ± 8 beats/min
- MAP ([3]; Reperfusion (120 min)): 91 ± 5^a mmHg
- RPP (systolic arterial pressure × HR) ([3]; Reperfusion (120 min)): 15770 ± 984^a
- HR ([3]; Reperfusion (180 min)): 160 ± 7 beats/min
- MAP ([3]; Reperfusion (180 min)): 91 ± 7^a mmHg
- RPP (systolic arterial pressure × HR) ([3]; Reperfusion (180 min)): 16300 ± 1503^a

SMILES: CC(=N)NCc1cccc(CN)c1 [1400W]
- infarct size [4]: 24.5±1.0%
- selectivity for iNOS vs nNOS (iNOS vs nNOS): approximately 40 fold

SMILES: COc1cccc2c1C(=O)c1c(O)c3c(c(O)c1C2=O)C[C@@](O)(C(=O)CO)C[C@@H]3O[C@H]1C[C@H](N)[C@H](O)[C@H](C)O1 [DOX, Doxorubicin]
- apoptosis indicators (TUNEL, cytochrome c translocation, caspase-3, PARP cleavage, Ψm dissipation) ([2]; 0.5–5 μM DOX for 18 hours): TUNEL positivity
- necrotic cell death (CK release, uptake of trypan blue) ([2]; 0.5–5 μM DOX for 18 hours): increased necrotic cell death

SMILES: CNC(=S)NS(=O)(=O)c1cc(CCNC(=O)c2cc(Cl)ccc2OC)ccc1OC [HMR1098]
- effect of channel blocker on the protective effect of sildenafil [2]: not by HMR1098

SMILES: CC(=N)NCCCC[C@H](N)C(=O)O.Cl [L-NIL, L-N-6-(1-iminoethyl)lysine hydrochloride]
- selectivity for iNOS vs nNOS (iNOS vs nNOS): approximately 40 fold

SMILES: CSC(N)=NCCC[C@H](N)C(=O)O [SMT, S-methyl-L-thiocitrulline]
- selectivity for iNOS vs nNOS (iNOS vs nNOS): approximately 40 fold

SMILES: C[C@@H](CN1CC(=O)NC(=O)C1)N1CC(=O)NC(=O)C1 [dexrazoxane]
- reduction of DOX-related cardiac complications [5]: 50%
